Values of other authors as cited in article PMC8541353, “A Novel Phenylpyrrolidine Derivative: Synthesis and Effect on Cognitive Functions in Rats with Experimental Ishemic Stroke” (Molecules, 2021).

Conditions: cited from earlier work

Row | SMILES | Literature Report of BBB Permeability
1 | NC(=O)CN1CC(O)CC1=O (centres unmarked) [Oxiracetam] | Low [20]
2 | CC[C@@H](C(N)=O)N1C[C@H](C=C(F)F)CC1=O [Seletracetam] | Very good [19]
